Columns and labels:
Assay type in all cases: biochemical
[1] = target: human JAK1 (a.a. 837-1142) (Homo sapiens, UniProt P23458); test: In vitro JAK kinase assay (HTRF, phosphorylation of a biotinylated peptide), JAK1; settings: measured at 1 mM ATP
Procedure, shortened: (§1)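 Phosphorylation of a biotinylated peptide by purified His-tagged JAK catalytic domains (insect-cell baculovirus expression) ran 1 hr at room temperature. After stopping with EDTA, Eu-Py20 and SA-APC were bound for 40 minutes and HTRF measured.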

[2] = target: human JAK1 (a.a. 837-1142); test: as above; settings: ratio of JAK2 IC50 to JAK1 IC50, measured at 1 mM ATP
Procedure, shortened: as §1

Jak2 (a.a. 828-1132) = Jak2 (a.a. 828-1132) (Homo sapiens (Human), UniProt O60674); test: In vitro JAK kinase assay (HTRF, phosphorylation of a biotinylated peptide), JAK2; settings: measured at 1 mM ATP
Procedure, shortened: as §1

Sequence of Jak2 (a.a. 828-1132) (O60674 828-1132): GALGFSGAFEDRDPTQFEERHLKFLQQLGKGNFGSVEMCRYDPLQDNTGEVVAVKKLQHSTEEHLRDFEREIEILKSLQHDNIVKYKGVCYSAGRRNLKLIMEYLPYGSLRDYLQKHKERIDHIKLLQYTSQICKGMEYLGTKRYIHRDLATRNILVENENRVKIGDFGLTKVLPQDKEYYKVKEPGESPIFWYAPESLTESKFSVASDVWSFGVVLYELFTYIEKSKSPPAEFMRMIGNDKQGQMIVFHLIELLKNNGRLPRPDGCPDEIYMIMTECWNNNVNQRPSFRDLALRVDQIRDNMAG

| IC50 [1] [nM] | IC50 Ratio JAK2/JAK1 [2] | IC50 (Jak2 (a.a. 828-1132)) [nM] | SMILES |
| --- | --- | --- | --- |
| ≤ 5 | 11.0 | 10 to 50 | N#CCC1(n2cc(-c3c(F)cnc4[nH]ccc34)cn2)CN(C2CCN(C(=O)c3ccnc(C(F)(F)F)c3F)CC2)C1 [Example 314, (3-[4-(5-Fluoro-1H-pyrrolo[2,3-b]pyridin-4-yl)-1H-pyrazol-1-yl]-1-{1-[3-fluoro-2-(trifluoromethyl)isonicotinoyl]piperidin-4-yl}azetidin-3-yl)acetonitrile] |
| ≤ 5 | 4.0 | 10 to 50 | N#CCC1(n2cc(-c3c(F)cnc4[nH]ccc34)cn2)CN(C2CCN(C(=O)c3ccc(F)cn3)CC2)C1 [Example 319, {1-{1-[(5-fluoropyridin-2-yl)carbonyl]piperidin-4-yl}-3-[4-(5-fluoro-1H-pyrrolo[2,3-b]pyridin-4-yl)-1H-pyrazol-1-yl]azetidin-3-yl}acetonitrile] |
| ≤ 5 | 2.8 | 10 to 50 | N#CCC1(n2cc(-c3c(F)cnc4[nH]ccc34)cn2)CN(C2CCN(C(=O)c3ccncc3F)CC2)C1 [Example 320, {1-[1-(3-fluoroisonicotinoyl)piperidin-4-yl]-3-[4-(5-fluoro-1H-pyrrolo[2,3-b]pyridin-4-yl)-1H-pyrazol-1-yl]azetidin-3-yl}acetonitrile] |
| ≤ 5 | 5.0 | ≤ 10 | N#CCC1(n2cc(-c3c(F)cnc4[nH]ccc34)cn2)CN(C2CCN(C(=O)c3ccc(O)cc3F)CC2)C1 [Example 323, {1-[1-(2-fluoro-4-hydroxybenzoyl)piperidin-4-yl]-3-[4-(5-fluoro-1H-pyrrolo[2,3-b]pyridin-4-yl)-1H-pyrazol-1-yl]azetidin-3-yl}acetonitrile] |
| 5 to 20 | 1.7 | 10 to 50 | N#CCC1(n2cc(-c3c(F)cnc4[nH]ccc34)cn2)CN(C2CCN(C(=O)c3cc(C(F)(F)F)ncc3Cl)CC2)C1 [Example 326, {1-{1-[5-chloro-2-(trifluoromethyl)isonicotinoyl]piperidin-4-yl}-3-[4-(5-fluoro-1H-pyrrolo[2,3-b]pyridin-4-yl)-1H-pyrazol-1-yl]azetidin-3-yl}acetonitrile] |
| ≤ 5 | 12.9 | 10 to 50 | N#CCC1(n2cc(-c3c(F)cnc4[nH]ccc34)cn2)CN(C2CCN(C(=O)Nc3ccc(F)cc3C(F)(F)F)CC2)C1 [Example 328, 4-{3-(Cyanomethyl)-3-[4-(5-fluoro-1H-pyrrolo[2,3-b]pyridin-4-yl)-1H-pyrazol-1-yl]azetidin-1-yl}-N-[4-fluoro-2-(trifluoromethyl)phenyl]piperidine-1-carboxamide] |
| 5 to 20 | 4.5 | 50 to 100 | N#CCC1(n2cc(-c3c(F)cnc4[nH]ccc34)cn2)CN(C2CCN(C(=O)Nc3ncccc3C(F)(F)F)CC2)C1 [Example 329, 4-{3-(cyanomethyl)-3-[4-(5-fluoro-1H-pyrrolo[2,3-b]pyridin-4-yl)-1H-pyrazol-1-yl]azetidin-1-yl}-N-[3-(trifluoromethyl)pyridin-2-yl]piperidine-1-carboxamide] |

Second part, the molecule before the results:

| SMILES | IC50 [1] [nM] | IC50 Ratio JAK2/JAK1 [2] | IC50 (Jak2 (a.a. 828-1132)) [nM] |
| --- | --- | --- | --- |
| COc1ncccc1NC(=O)N1CCC(N2CC(CC#N)(n3cc(-c4ccnc5[nH]ccc45)cn3)C2)CC1 [Example 306, 4-{3-(cyanomethyl)-3-[4-(1H-pyrrolo[2,3-b]pyridin-4-yl)-1H-pyrazol-1-yl]azetidin-1-yl}-N-(2-methoxypyridin-3-yl)piperidine-1-carboxamide] | 5 to 20 | 3.5 | 10 to 50 |
| N#CCC1(n2cc(-c3ccnc4[nH]ccc34)cn2)CN(C2CCN(C(=O)Nc3ccncc3C(F)(F)F)CC2)C1 [Example 307, 4-{3-(cyanomethyl)-3-[4-(1H-pyrrolo[2,3-b]pyridin-4-yl)-1H-pyrazol-1-yl]azetidin-1-yl}-N-[3-(trifluoromethyl)pyridin-4-yl]piperidine-1-carboxamide] | 5 to 20 | 8.8 | 50 to 100 |
| N#CCC1(n2cc(-c3ccnc4[nH]ccc34)cn2)CN(C2CCN(C(=O)Nc3cnccc3C(F)(F)F)CC2)C1 [Example 308, 4-{3-(cyanomethyl)-3-[4-(1H-pyrrolo[2,3-b]pyridin-4-yl)-1H-pyrazol-1-yl]azetidin-1-yl}-N-[4-(trifluoromethyl)pyridin-3-yl]piperidine-1-carboxamide] | ≤ 5 | 10.4 | 50 to 100 |
| N#CCC1(n2cc(-c3ccnc4[nH]ccc34)cn2)CN(C2CCN(C(=O)Nc3ccccc3F)CC2)C1 [Example 309, 4-{3-(cyanomethyl)-3-[4-(1H-pyrrolo[2,3-b]pyridin-4-yl)-1H-pyrazol-1-yl]azetidin-1-yl}-N-(2-fluorophenyl)piperidine-1-carboxamide] | 5 to 20 | 5.3 | 10 to 50 |
| N#CCC1(n2cc(-c3ccnc4[nH]ccc34)cn2)CN(C2CCN(C(=O)Nc3ccccc3Cl)CC2)C1 [Example 310, N-(2-chlorophenyl)-4-{3-(cyanomethyl)-3-[4-(1H-pyrrolo[2,3-b]pyridin-4-yl)-1H-pyrazol-1-yl]azetidin-1-yl}piperidine-1-carboxamide] | ≤ 5 | 9.0 | 10 to 50 |
| N#CCC1(n2cc(-c3ccnc4[nH]ccc34)cn2)CN(C2CCN(C(=O)Nc3ccc(C#N)cc3C(F)(F)F)CC2)C1 [Example 311, 4-{3-(cyanomethyl)-3-[4-(1H-pyrrolo[2,3-b]pyridin-4-yl)-1H-pyrazol-1-yl]azetidin-1-yl}-N-[4-cyano-2-(trifluoromethyl)phenyl]piperidine-1-carboxamide] | 5 to 20 | 11.1 | > 100 |
| N#CCC1(n2cc(-c3ccnc4[nH]ccc34)cn2)CN(C2CCN(C(=O)Nc3ccc(C#N)cc3F)CC2)C1 [Example 312, N-(4-cyano-2-fluorophenyl)-4-{3-(cyanomethyl)-3-[4-(1H-pyrrolo[2,3-b]pyridin-4-yl)-1H-pyrazol-1-yl]azetidin-1-yl}piperidine-1-carboxamide] | 5 to 20 | 5.3 | 50 to 100 |
| N#CCC1(n2cc(-c3ccnc4[nH]ccc34)cn2)CN(C2CCN(C(=O)Nc3ccc(C#N)cc3Cl)CC2)C1 [Example 313, N-(2-chloro-4-cyanophenyl)-4-{3-(cyanomethyl)-3-[4-(1H-pyrrolo[2,3-b]pyridin-4-yl)-1H-pyrazol-1-yl]azetidin-1-yl}piperidine-1-carboxamide] | ≤ 5 | 14.3 | 10 to 50 |
| N#CCC1(n2cc(-c3c(F)cnc4[nH]ccc34)cn2)CN(C2CCN(C(=O)c3cc(F)cc(C#N)c3)CC2)C1 [Example 316, 3-[(4-{3-(cyanomethyl)-3-[4-(5-fluoro-1H-pyrrolo[2,3-b]pyridin-4-yl)-1H-pyrazol-1-yl]azetidin-1-yl}piperidin-1-yl)carbonyl]-5-fluorobenzonitrile] | ≤ 5 | 9.5 | 10 to 50 |
| N#CCC1(n2cc(-c3c(F)cnc4[nH]ccc34)cn2)CN(C2CCN(C(=O)c3ccc(C#N)cc3F)CC2)C1 [Example 317, 4-[(4-{3-(cyanomethyl)-3-[4-(5-fluoro-1H-pyrrolo[2,3-b]pyridin-4-yl)-1H-pyrazol-1-yl]azetidin-1-yl}piperidin-1-yl)carbonyl]-3-fluorobenzonitrile] | ≤ 5 | 4.5 | 10 to 50 |
| N#CCC1(n2cc(-c3c(F)cnc4[nH]ccc34)cn2)CN(C2CCN(C(=O)c3ccc(F)c(C#N)c3)CC2)C1 [Example 318, 5-[(4-{3-(cyanomethyl)-3-[4-(5-fluoro-1H-pyrrolo[2,3-b]pyridin-4-yl)-1H-pyrazol-1-yl]azetidin-1-yl}piperidin-1-yl)carbonyl]-2-fluorobenzonitrile] | 5 to 20 | 4.7 | 10 to 50 |
| N#CCC1(n2cc(-c3c(F)cnc4[nH]ccc34)cn2)CN(C2CCN(C(=O)c3c(F)cncc3F)CC2)C1 [Example 321, {1-[1-(3,5-difluoroisonicotinoyl)piperidin-4-yl]-3-[4-(5-fluoro-1H-pyrrolo[2,3-b]pyridin-4-yl)-1H-pyrazol-1-yl]azetidin-3-yl}acetonitrile] | ≤ 5 | 3.0 | 10 to 50 |
| N#CCC1(n2cc(-c3c(F)cnc4[nH]ccc34)cn2)CN(C2CCN(C(=O)c3ccc(O)c(F)c3)CC2)C1 [Example 322, {1-[1-(3-fluoro-4-hydroxybenzoyl)piperidin-4-yl]-3-[4-(5-fluoro-1H-pyrrolo[2,3-b]pyridin-4-yl)-1H-pyrazol-1-yl]azetidin-3-yl}acetonitrile] | ≤ 5 | 4.7 | ≤ 10 |
| N#CCC1(n2cc(-c3c(F)cnc4[nH]ccc34)cn2)CN(C2CCN(C(=O)C3CCC(F)(F)CC3)CC2)C1 [Example 327, {1-{1-[(4,4-difluorocyclohexyl)carbonyl]piperidin-4-yl}-3-[4-(5-fluoro-1H-pyrrolo[2,3-b]pyridine-4-yl)-1H-pyrazol-1-yl]azetidin-3-yl}acetonitrile] | 5 to 20 | 4.1 | 50 to 100 |
| N#CCC1(n2cc(-c3c(F)cnc4[nH]ccc34)cn2)CN(C2CCN(C(=O)Nc3cnccc3C(F)(F)F)CC2)C1 [Example 330, 4-{3-(cyanomethyl)-3-[4-(5-fluoro-1H-pyrrolo[2,3-b]pyridin-4-yl)-1H-pyrazol-1-yl]azetidin-1-yl}-N-[4-(trifluoromethyl)pyridin-3-yl]piperidine-1-carboxamide] | ≤ 5 | 6.7 | 10 to 50 |
